In patent US20250163043A1 (TRANSTHERA SCIENCES (NANJING), INC., priority 2021, published 2025):

Assays:
[1] = test system: MV-4-11 (human myelomonocytic leukemia cells); test: CCK-8 cell proliferation assay, MV-4-11; assay type: cell-based; conditions: MV4-11, 24 h incubation, 11 concentrations from 5000 nM, 3-fold, read-out: MV-4-11 cell proliferation IC50 (class)
Protocol: Test samples: the compounds of the present invention, having structures shown above.
MV-4-11 (human myelomonocytic leukemia cells) and NCI-H929 (human myeloma cells).
The compounds were dissolved in DMSO and diluted 3-fold in the 96-well plate to obtain stock solutions with 11 concentration gradients. Each cell was inoculated into a 96-well plate, and the diluted compound stock solution was added to the 96-well plate to obtain a series of 11 concentration gradients of compound solutions with final concentrations of 5000 nM starting and 3-fold gradient decreasing, wherein the final DMSO content was […]. There was a medium containing 1‰ DMSO in the negative control well. The treated cells were incubated at 37° C. with 5% CO2 and 95% humidity, wherein MV-4-11 were incubated for 24 h and NCI-H929 for 72 h. After incubation was completed, each well was added with 10 μL of CCK-8 reagent, incubated for 1-3 h at room temperature and placed in the microplate reader, and the absorbance was read at 450 nm.
The inhibition rate was calculated according to the following formula: […]
ODcmpd: compound absorbance; ODpositive: average value of the absorbance of positive control without compound; ODvehicle: average value of the absorbance of solvent vehicle control.
IC50 values were fitted using GraphPad 7.0 based on inhibition rates of compounds at different concentrations.

CDK9/CycT1 = CDK9/CycT1 (Homo sapiens, UniProt P50750); test: ADP-Glo kinase assay on CDK enzymatic activity, CDK9/CycT1; assay type: biochemical; conditions: 10 concentrations from 10 μM, 4-fold, 60 min room temperature
Sequence of CDK9/CycT1 (P50750 whole entry): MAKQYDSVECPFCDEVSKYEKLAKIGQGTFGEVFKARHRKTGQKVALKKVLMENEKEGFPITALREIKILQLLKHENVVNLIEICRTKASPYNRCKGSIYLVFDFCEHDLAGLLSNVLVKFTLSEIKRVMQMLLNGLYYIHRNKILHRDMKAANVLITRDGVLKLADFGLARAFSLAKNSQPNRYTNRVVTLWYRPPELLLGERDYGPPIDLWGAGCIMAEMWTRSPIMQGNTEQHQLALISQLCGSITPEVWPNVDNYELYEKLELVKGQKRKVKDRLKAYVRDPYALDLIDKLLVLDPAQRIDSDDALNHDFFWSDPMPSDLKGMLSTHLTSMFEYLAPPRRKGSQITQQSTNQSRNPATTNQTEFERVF
Sequence of CDK9/CycT1 (O60563 whole entry partner): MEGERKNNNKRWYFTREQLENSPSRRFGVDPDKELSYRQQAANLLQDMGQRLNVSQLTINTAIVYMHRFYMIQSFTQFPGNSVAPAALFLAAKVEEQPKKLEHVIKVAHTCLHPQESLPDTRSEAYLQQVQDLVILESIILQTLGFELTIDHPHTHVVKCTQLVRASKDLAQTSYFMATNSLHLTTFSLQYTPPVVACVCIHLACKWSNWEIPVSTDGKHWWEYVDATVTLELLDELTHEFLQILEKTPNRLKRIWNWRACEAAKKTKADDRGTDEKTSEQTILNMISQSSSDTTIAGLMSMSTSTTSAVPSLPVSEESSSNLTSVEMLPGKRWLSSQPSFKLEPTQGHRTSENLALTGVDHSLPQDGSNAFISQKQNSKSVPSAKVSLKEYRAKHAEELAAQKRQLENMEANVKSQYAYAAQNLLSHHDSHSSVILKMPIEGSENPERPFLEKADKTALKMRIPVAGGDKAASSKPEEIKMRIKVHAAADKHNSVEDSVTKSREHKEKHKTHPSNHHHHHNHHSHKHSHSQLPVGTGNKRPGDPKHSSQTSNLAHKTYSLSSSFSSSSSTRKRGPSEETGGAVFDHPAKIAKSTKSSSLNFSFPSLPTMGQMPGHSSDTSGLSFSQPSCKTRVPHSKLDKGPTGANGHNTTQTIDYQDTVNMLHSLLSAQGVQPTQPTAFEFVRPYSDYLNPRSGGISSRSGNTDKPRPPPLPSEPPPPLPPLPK
In short: (§1)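 Compounds were tested as 10-point, 4-fold dilutions from 10 μM final, preincubated 10 min at room temperature with kinase, then reacted 60 min with CDK tide substrate and ATP. ADP formed was detected by ADP-Glo luminescence; inhibition was normalised to 1 μM AZD4573 and 0.5% DMSO controls and IC50 fitted.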

CDK2/CycA2 = CDK2/CycA2 (Homo sapiens, UniProt P24941); test: ADP-Glo kinase assay on CDK enzymatic activity, CDK2/CycA2; assay type: biochemical; conditions: 10 concentrations from 10 μM, 4-fold, 60 min room temperature
In short: as §1

CDK1/CycE1 = CDK1/CycE1 (Homo sapiens, UniProt P06493); test: ADP-Glo kinase assay on CDK enzymatic activity, CDK1/CycE1; assay type: biochemical; conditions: ADP-Glo; 10 concentrations from 10 μM, 4-fold; 60 min room temperature; read-out: CDK1/CycE1/nM (IC50)
Sequence of CDK1/CycE1 (P06493 whole entry, species assumed): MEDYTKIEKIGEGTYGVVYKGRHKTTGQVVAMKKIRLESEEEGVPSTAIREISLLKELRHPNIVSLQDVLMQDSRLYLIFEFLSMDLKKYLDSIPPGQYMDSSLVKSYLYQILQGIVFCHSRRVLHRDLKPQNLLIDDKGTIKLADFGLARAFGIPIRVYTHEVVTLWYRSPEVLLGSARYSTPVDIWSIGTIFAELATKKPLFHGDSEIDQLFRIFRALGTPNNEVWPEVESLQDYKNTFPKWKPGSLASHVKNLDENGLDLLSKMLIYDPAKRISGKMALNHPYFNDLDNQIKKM
Sequence of CDK1/CycE1 (P24864 whole entry partner, species assumed): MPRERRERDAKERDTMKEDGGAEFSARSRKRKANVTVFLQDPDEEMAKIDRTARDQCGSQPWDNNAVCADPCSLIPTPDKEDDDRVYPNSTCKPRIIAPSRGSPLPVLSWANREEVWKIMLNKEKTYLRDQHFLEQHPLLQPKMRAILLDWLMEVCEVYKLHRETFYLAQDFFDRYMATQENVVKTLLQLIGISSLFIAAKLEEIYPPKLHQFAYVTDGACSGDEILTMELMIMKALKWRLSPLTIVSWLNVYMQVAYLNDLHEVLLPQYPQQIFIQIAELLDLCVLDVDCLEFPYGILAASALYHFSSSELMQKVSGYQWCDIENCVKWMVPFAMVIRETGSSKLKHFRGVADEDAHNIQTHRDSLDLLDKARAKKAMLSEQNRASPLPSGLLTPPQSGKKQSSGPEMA
In short: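 Compounds in 10-point 4-fold dilutions from 10 μM final, preincubated 10 min with kinase, then substrate/ATP added; 60 min reaction at room temperature. ADP-Glo luminescence read.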

CDK5/p25NCK = CDK5/p25NCK (Homo sapiens, UniProt Q00535); test: ADP-Glo kinase assay on CDK enzymatic activity, CDK5/p25NCK; assay type: biochemical; conditions: 10 concentrations from 10 μM, 4-fold, 60 min room temperature
Sequence of CDK5/p25NCK (Q00535 whole entry, species assumed): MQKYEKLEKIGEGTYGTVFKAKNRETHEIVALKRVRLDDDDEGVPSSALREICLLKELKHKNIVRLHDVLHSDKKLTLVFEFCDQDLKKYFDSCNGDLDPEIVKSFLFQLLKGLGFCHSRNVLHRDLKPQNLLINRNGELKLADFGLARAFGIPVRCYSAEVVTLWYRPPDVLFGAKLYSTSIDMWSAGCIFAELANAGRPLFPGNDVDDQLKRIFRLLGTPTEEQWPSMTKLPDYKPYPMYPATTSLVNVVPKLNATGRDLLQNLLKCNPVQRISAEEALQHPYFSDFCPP
Sequence of CDK5/p25NCK (Q15078 99-307 partner limits assumed, species assumed): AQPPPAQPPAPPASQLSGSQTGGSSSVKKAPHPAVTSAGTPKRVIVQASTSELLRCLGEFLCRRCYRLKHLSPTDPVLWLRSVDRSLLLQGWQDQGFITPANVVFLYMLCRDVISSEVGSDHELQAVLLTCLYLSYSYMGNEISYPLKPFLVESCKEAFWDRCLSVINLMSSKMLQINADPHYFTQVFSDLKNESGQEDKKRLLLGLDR
In short: as §1

CDK3/CycE1 = CDK3/CycE1 (Homo sapiens, UniProt Q00526); test: ADP-Glo kinase assay on CDK enzymatic activity, CDK3/CycE1; assay type: biochemical; conditions: 10 concentrations from 10 μM, 4-fold, 60 min room temperature
Sequence of CDK3/CycE1 (Q00526 whole entry, species assumed): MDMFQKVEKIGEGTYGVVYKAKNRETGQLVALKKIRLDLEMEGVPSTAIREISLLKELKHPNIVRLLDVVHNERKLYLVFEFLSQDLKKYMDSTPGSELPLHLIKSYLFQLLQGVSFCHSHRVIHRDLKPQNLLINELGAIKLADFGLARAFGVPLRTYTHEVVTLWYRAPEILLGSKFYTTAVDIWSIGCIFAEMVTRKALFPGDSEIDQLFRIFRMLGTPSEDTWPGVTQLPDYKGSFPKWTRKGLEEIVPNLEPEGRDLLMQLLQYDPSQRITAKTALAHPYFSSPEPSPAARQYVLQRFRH
Sequence of CDK3/CycE1 (P24864 whole entry partner, species assumed): as the sequence (P24864 whole entry partner, species assumed) above
In short: as §1

IC50 [1]	IC50 (CDK9/CycT1)	SMILES	also measured
> 1000 nM		CC(=O)N[C@@H]1CCC[C@H](C(=O)Nc2cc3c(N4CCOCC4)nc(C#N)cc3cn2)C1 [Compound 21, (1S,3R)-3-acetamido-N-(7-cyano-5-morpholino-2,6-naphthyridin-3-yl)cyclohexane-1-carboxamide]	
> 1000 nM	6 nM	CC(C)Nc1nc(C#N)cc2cnc(N[C@@H]3CCOC3)nc12 [Compound 119, (R)-8-(isopropylamino)-2-((tetrahydrofuran-3-yl)amino)pyrido[3,4-d]pyrimidine-6-carbonitrile]	
> 1000 nM	46 nM	C=Cc1cc2cnc(NC(=O)[C@H]3CCC[C@@H](NC(C)=O)C3)nc2c(NC(C)C)n1 [Compound 10, (1S,3R)-3-acetamido-N-(8-(isopropylamino)-6-vinylpyrido[3,4-d]pyrimidin-2-yl)cyclohexane-1-carboxamide]	
> 1000 nM		CC(=O)N[C@@H]1CCC[C@H](C(=O)Nc2ncc3cc(C#N)nc(NC(C)C)c3n2)C1 [Compound 3, (1S,3R)-3-acetamido-N-(6-cyano-8-(isopropylamino)pyrido[3,4-d]pyrimidin-2-yl)cyclohexane-1-carboxamide]	
> 1000 nM		CC(=O)N1CCC[C@H](C(=O)Nc2ncc3cc(C#N)nc(NC(C)C)c3n2)C1 [Compound 6, (S)-1-acetyl-N-(6-cyano-8-(isopropylamino)pyrido[3,4-d]pyrimidin-2-yl)piperidine-3-carboxamide]	
> 1000 nM	44 nM	CC(=O)N[C@@H]1CCC[C@H](C(=O)Nc2ncc3cc(C(F)F)nc(NC(C)C)c3n2)C1 [Compound 7, (1S,3R)-3-acetamido-N-(6-(difluoromethyl)-8-(isopropylamino)pyrido[3,4-d]pyrimidin-2-yl)cyclohexane-1-carboxamide]	
400 to 1000 nM	9 nM	CC(C)(C)Nc1nc(C(F)F)cc2cnc(N[C@H]3[C@@H]4CNC[C@@H]43)nc12 [Compound C4, N^2-((1R,5S,6s)-3-azabicyclo[3.1.0]hexan-6-yl)-N^8-(tert-butyl)-6-(difluoromethyl)pyrido[3,4-d]pyrimidine-2,8-diamine]	
400 to 1000 nM	50 nM	CC(C)Nc1nc(C#N)cc2cnc(N[C@@H]3CCCCNC3)nc12 [Compound C5, (R)-2-(azepan-3-ylamino)-8-(isopropylamino)pyrido[3,4-d]pyrimidine-6-carbonitrile]	
400 to 1000 nM	14 nM	CC(C)Nc1nc(C#N)cc2cnc(NC3CCCS(=O)(=O)C3)nc12 (centres unmarked) [Compound 121, 2-((1,1-dioxidotetrahydro-2H-thiopyran-3-yl)amino)-8-(isopropylamino)pyrido[3,4-d]pyrimidine-6-carbonitrile]	
> 1000 nM		COc1cc2cnc(NC(=O)[C@H]3CCC[C@@H](NC(C)=O)C3)nc2c(NC(C)C)n1 [Compound 12, (1S,3R)-3-acetamido-N-(8-(isopropylamino)-6-methoxypyrido[3,4-d]pyrimidin-2-yl)cyclohexane-1-carboxamide]	
> 1000 nM	15 nM	N#Cc1cc2cnc(N[C@H]3CCCNC3)cc2c(C2CC2)n1 [Compound 194, (S)-1-cyclopropyl-7-(piperidin-3-ylamino)-2,6-naphthyridine-3-carbonitrile]	
400 to 1000 nM	3 nM	CC(C)Nc1nc(C#N)cc2cnc(N[C@H]3CCC[C@H]3N)cc12 [Compound 158, 7-(((1S,2R)-2-aminocyclopentyl)amino)-1-(isopropylamino)-2,6-naphthyridine-3-carbonitrile]	
> 1000 nM		CNc1cc2cnc(NC(=O)[C@H]3CCC[C@@H](NC(C)=O)C3)nc2c(NC(C)C)n1 [Compound 11, (1S,3R)-3-acetamido-N-(8-(isopropylamino)-6-(methylamino)pyrido[3,4-d]pyrimidin-2-yl)cyclohexane-1-carboxamide]	
400 to 1000 nM	10 nM	CC(C)(C)Nc1nc(C(N)=O)cc2cnc(N[C@H]3C[C@H](N)C3)nc12 [Compound C19, 2-(((1r,3r)-3-aminocyclobutyl)amino)-8-(tert-butylamino)pyrido[3,4-d]pyrimidine-6-carboxamide]	
> 1000 nM	9 nM	CC(C)Nc1nc(C#N)cc2cnc(NC3CCCC3N)cc12 (centres unmarked) [Compound 146, 7-((2-aminocyclopentyl)amino)-1-(isopropylamino)-2,6-naphthyridine-3-carbonitrile]	
> 1000 nM	12 nM	CC(C)Nc1nc(C#N)cc2cnc(N[C@H]3CCOC3)nc12 [Compound 118, (S)-8-(isopropylamino)-2-((tetrahydrofuran-3-yl)amino)pyrido[3,4-d]pyrimidine-6-carbonitrile]	
> 1000 nM		CC(=O)N[C@@H]1CCC[C@H](C(=O)Nc2ncc3cc(C)nc(NC(C)C)c3n2)C1 [Compound 8, (1S,3R)-3-acetamido-N-(8-(isopropylamino)-6-methylpyrido[3,4-d]pyrimidin-2-yl)cyclohexane-1-carboxamide]	
> 1000 nM	19 nM	CC(=O)N1CCN([C@H]2C[C@@H](Nc3ncc4cc(C#N)nc(NC(C)C)c4n3)C2)CC1 [Compound C33, 2-(((1s,3s)-3-(4-acetylpiperazin-1-yl)cyclobutyl)amino)-8-(isopropylamino)pyrido[3,4-d]pyrimidine-6-carbonitrile]	
400 to 1000 nM	7 nM	CCNc1nc(C#N)cc2cnc(N[C@H]3C[C@](C)(N)C3)cc12 [Compound 208, 7-(((1r,3r)-3-amino-3-methylcyclobutyl)amino)-1-(ethylamino)-2,6-naphthyridine-3-carbonitrile]	
> 1000 nM		CC(=O)N[C@@H]1CCC[C@H](C(=O)Nc2ncc3cc(S(C)(=O)=O)nc(NC(C)C)c3n2)C1 [Compound 5, (1S,3R)-3-acetamido-N-(8-(isopropylamino)-6-(methylsulfonyl)pyrido[3,4-d]pyrimidin-2-yl)cyclohexane-1-carboxamide]	
> 1000 nM		CCc1cc2cnc(NC(=O)[C@H]3CCC[C@@H](NC(C)=O)C3)nc2c(NC(C)C)n1 [Compound 9, (1S,3R)-3-acetamido-N-(6-ethyl-8-(isopropylamino)pyrido[3,4-d]pyrimidin-2-yl)cyclohexane-1-carboxamide]	
> 1000 nM	10 nM	CC(C)Nc1nc(C#N)cc2cnc(N[C@H]3CC[C@@H](N)CC3)nc12 [Compound 137, 2-(((1s,4s)-4-aminocyclohexyl)amino)-8-(isopropylamino)pyrido[3,4-d]pyrimidine-6-carbonitrile]	
> 1000 nM	6 nM	CC(C)Nc1nc(C#N)cc2cnc(N[C@@H]3CCCOC3)nc12 [Compound 117, (R)-8-(isopropylamino)-2-((tetrahydro-2H-pyran-3-yl)amino)pyrido[3,4-d]pyrimidine-6-carbonitrile]	
> 1000 nM	8 nM	CC(C)Nc1nc(C#N)cc2cnc(N[C@]3(C)C[C@@H](O)C3)nc12 [Compound C10, 2-(((1r,3r)-3-hydroxy-1-methylcyclobutyl)amino)-8-(isopropylamino)pyrido[3,4-d]pyrimidine-6-carbonitrile]	
> 1000 nM		Cc1nc(C#N)cc2cnc(N[C@H]3CCCNC3)cc12 [Compound 196, (S)-1-methyl-7-(piperidin-3-ylamino)-2,6-naphthyridine-3-carbonitrile]	
400 to 1000 nM		CC(C)Nc1nc(C#N)cc2cnc(N[C@H]3CCC[C@@H](N)C3)cc12 [Compound 40, 7-(((1S,3R)-3-aminocyclohexyl)amino)-1-(isopropylamino)-2,6-naphthyridine-3-carbonitrile]	
	6 nM	CC(C)Nc1nc(C#N)cc2cnc(N[C@@H]3CN4CCC3CC4)nc12 [Compound C45, (S)-8-(isopropylamino)-2-(quinuclidin-3-ylamino)pyrido[3,4-d]pyrimidine-6-carbonitrile]	IC50 (CDK2/CycA2): 1310 nM; IC50 (CDK1/CycE1): 467 nM; IC50 (CDK5/p25NCK): 7980 nM; IC50 (CDK3/CycE1): 340 nM
	2 nM	CC(C)Nc1nc(C#N)cc2cnc(N[C@H]3CC[C@H](N)CC3)nc12 [Compound 136, 2-(((1r,4r)-4-aminocyclohexyl)amino)-8-(isopropylamino)pyrido[3,4-d]pyrimidine-6-carbonitrile]	IC50 (CDK2/CycA2): 13 nM; IC50 (CDK1/CycE1): 315 nM; IC50 (CDK5/p25NCK): 116 nM; IC50 (CDK3/CycE1): 27 nM
400 to 1000 nM		CC(C)Cc1nc(C#N)cc2cnc(N[C@H]3CCCNC3)cc12 [Compound 108, (S)-1-isobutyl-7-(piperidin-3-ylamino)-2,6-naphthyridine-3-carbonitrile]	
